Reference: patent US20050147959A1, “Tissue analogs for in vitro testing and method of use therefor” (priority 2002, published 2005)

Experiments:
[1] = test system: cartilage analogs (human nasal septal chondrocytes on microcarriers); assay: De novo proteoglycan synthesis by 35S-sulfate incorporation in cartilage analogs cultured in spinner flasks; format: cell-based; settings: for sulfate incorporation, cell-associated (non-secreted) fraction, compared to controls: Ibuprofen 140 μg/ml; for de novo proteoglycan synthesis compared to the control (FIG. 8): subsequent study with PPS5, 35S label during last 24 hours of culture
Procedure: A preliminary experiment was conducted to analyze the effect of agents such as growth factors (TGF-β1) and non-steroidal anti-inflammatory drugs (NSAIDS; Ibuprofen). Human chondrocytes from donors undergoing nasal septal defect surgery were isolated by enzymatic digestion. The cells were seeded onto microcarriers at approximately 4×10^3 cells/cm^2, and incubated in spinner flasks at 60 rpm and at 37° C. and 5% CO2 until the cells reach confluency at about 14 days. […] These aggregates are referred to here as “cartilage analogs”.
(§1) Equivalent aliquots of these analogs were transferred to six 25-ml spinner flasks. Aliquots (5 ml) of control medium (no additive), or medium containing human platelet TGF-β1 (10 ng/ml; Sigma Chemical Co., St. Louis, Mo.) or Ibuprofen (140 μg/ml; Sigma) were added to duplicate flasks. TGF-β1 is a growth factor known to stimulate proteoglycan synthesis in chondrocyte cultures and cartilage explant cultures, while Ibuprofen is an anti-inflammatory drug known to inhibit proteoglycan synthesis. […] The cultures were incubated for two days. 24 hours prior to terminating the cultures, 300 μCi of ^35S—Na2SO4 (NEN Life Science Products, Boston, Mass.) was added to each flask to measure incorporation into proteoglycans during the last 24 hours of culture.
Following termination of the cultures, cells were pelleted by centrifugation and proteoglycans were extracted from the supernatant medium and the cell fraction with 4 M guanidine HCl for 24 hours at 4° C. Guanidine HCl extracts were dialyzed extensively against deionized class I water using 6,000 Da cut-off dialysis tubing (The Spectrum Companies, Gardena, Calif.). Post-dialysis volumes were measured and triplicate 100 μl samples were counted in a LS-6500 Liquid Scintillation Counter (Beckman Instruments, Inc., Palo Alto, Calif.) using Cytoscint-ES Cocktail (ICN Research Products, Costa Mesa, Calif.). The total ^35SO4 incorporation was expressed as cpm per 10^6 cells. Another set of dialyzed samples were dried on a Speed-Vac (Savant, Inc., Farmingdale, N.Y.) and was then reconstituted in sample buffer consisting of 1% sodium dodecylsulfate, 30% sucrose and 0.025% brophenol blue. The samples were boiled for 5 min and then loaded on an 0.75% agarose gel in electrophoresis buffer. After electrophoresis, the gel was treated with Entensify (NEN Life Science Products), dried and autoradiographed at −70° C.

[2] = test system: cartilage analogs (human nasal septal chondrocytes on microcarriers); assay: Immunoperoxidase staining for proteoglycans in chondrocytes from cartilage analogs; format: cell-based; settings: two days incubation; TGF-β1 10 ng/ml, Ibuprofen 140 μg/ml
Procedure: A preliminary experiment was conducted to analyze the effect of agents such as growth factors (TGF-β1) and non-steroidal anti-inflammatory drugs (NSAIDS; Ibuprofen). Human chondrocytes from donors undergoing nasal septal defect surgery were isolated by enzymatic digestion. The cells were seeded onto microcarriers at approximately 4×10^3 cells/cm^2, and incubated in spinner flasks at 60 rpm and at 37° C. and 5% CO2 until the cells reach confluency at about 14 days. At this point, the chondrocytes produce extracellular matrix-like products consisting of type II collagen, high-molecular-weight proteoglycans and aggrecan. The constructs also start to form microaggregates. These aggregates are referred to here as “cartilage analogs”.
as §1, with “24 hours prior to terminating the cultures, 300 μCi of ^35S—Na2SO4 (NEN Life Science Products, Boston, Mass.) was added to each flask to measure incorporation into proteoglycans during the last 24 hours of culture.” left out

[3] = preliminary experiment, two days, 35S label during last 24 hours, TGF-β1 10 ng/ml

TGF-β1: human platelet TGF-β1, a growth factor known to stimulate proteoglycan synthesis in chondrocyte cultures
sulfate incorporation, media-associated (secreted) fraction, compared to controls [1, 3]: higher sulfate incorporation | sulfate incorporation, cell-associated (non-secreted) fraction, compared to controls [1, 3]: higher sulfate incorporation | de novo proteoglycan synthesis compared to the control (FIG. 8) [1]: enhanced protoglycan synthesis | immunostaining for proteoglycans compared to control cells [2]: More intense immunostaining

CC(C)Cc1ccc(C(C)C(=O)O)cc1 (stereo not shown) [Ibuprofen, reference compound]
sulfate incorporation, cell-associated (non-secreted) fraction, compared to controls [1, 3]: decreased the cell-associated sulfate incorporation | de novo proteoglycan synthesis compared to the control (FIG. 8) [1]: decreased proteoglycan synthesis | immunostaining for proteoglycans compared to control cells [2]: more faint immunostaining
